Experimental data published in US20050019746A1, “Apoptosis-related kinase/GPCRs” (EiRx Therapeutics Limited, priority 2003, published 2005).

Columns and labels:
[1] = test system: target gene mRNA in PC3 cells; test: Validation of siRNA efficacy by QPCR in PC3 cells; assay type: cell-based, human; settings: PC3, siRNA 50 nM, RNAiFect, 24 hours post transfection, relative to non-silencing control, normalised to GAPDH
Description: To evaluate the ability of each siRNA oligonucleotides to knock down its intended target, each siRNA was validated in a cell line known to express the target, in this example the genes were tested PC3 cells, which were shown by expression profiling to express all target genes. The efficacy of knockdown was measured using QPCR. Cells are plated at a density of 2×10^4 cells in each well of a 24 well plate and incubated at 37° C. overnight. The siRNA is transfected into cells using RNAiFect reagent (Qiagen) with siRNA at a concentration of 50 nM according to manufacturer's instructions. Additional wells of cells are transfected with 50 nM of a non-silencing control (Qiagen). […] Transfected cells are harvested at 24 hours post transfection, and RNA extracted using RNeasy Miniprep columns with an on-column DNase digestion step. The RNA is eluted in 30 μl of RNase-free H2O. cDNA is synthesised from 12 μl of this RNA using an anchored oligo(dT) primer (Sigma) and Transcriptor reverse transcriptase (Roche) at 55° C. in a total volume of 20 μl following the manufacturer's instructions. The resulting cDNA is diluted to a total of 200 μl with H2O and 10 μl used in each QPCR reaction. The levels of transcript are compared by QPCR, relative to the non-silencing control. QPCR is performed using primers, conditions and methodology identical to those used for expression profiling, see Table 8. All reactions were performed in duplicate and the average Ct values calculated. For each sample, the Ct of each target gene in normalised to GAPDH. Relative expression between cells transfected with target or non-silencing siRNA, normalised to GAPDH expression, is determined by the comparative Ct method.

[2] = test system: target gene mRNA in TF1 cells; test: Knockdown by RNAi, QPCR, TF1 cells; assay type: cell-based, human; settings: 48 hrs post transfection, relative to missense control; for % Knockdown by RNAi, TF1 + GMCSF: TF1 with GM-CSF; for % Knockdown by RNAi, TF1 − GMCSF: TF1 without GM-CSF
Description: In the case of TF1 cells, 2×10^5 cells/ well are transfected with 2 μg of siRNA in each well of a 24 well plate using […] DMRIE-C reagent (InVitrogen) per ml of Optimem (Gibco). Cells are simultaneously transfected in parallel with a control missense siRNA. Recombinant GM-CSF at 2 ng/ml is added to the OPTI-MEM media during transfection. The transfection media is replaced after four hours with fresh RPMI 1640 containing […] GMSCF and 10% FCS and incubated at 37° C. Twenty-four hours post-transfection, the media are changed; RPMI 1640+10% FCS containing […] GMSCF is added to 3 wells and RPMI 1640+10% FCS without GMSCF is added to the other 3 wells. These cells are harvested 48 and 72 hours post transfection for QPCR and phenotypic assays. Control TF1 cells, which are not transfected, are similarly treated. Samples are labeled T48+G, T48−G, according to the time of harvesting post-transfection and the presence (+G) or absence (−G) of GM-CSF in the media. RNA is isolated, cDNA is reverse transcribed and QPCR is performed as described above. Short Term (72 hrs post transfection) Cell Viability/Apoptosis assays employed are discussed below.
After DMRIE transfections with siRNA Oligos against the apoptosis associated genes identified herein, or controls, cells are harvested at 24 or 48 hours post transfection as stated previously. RNA is then extracted using RNeasy Miniprep columns (Qiagen 74104) after lysis on KIAshredder columns (Qiagen 79654). RNA is quantified by spectrophotometric analysis and 1 μg is reverse transcribed into cDNA using SuperScriptII RNAseH-Reverse Transcriptase (Invitrogen 18064-014). The levels of transcript are compared by QPCR as described in detail in Example 3, relative to missense controls. QPCR primers are designed to amplify a PCR product of approximately 100 to 300 nucleotides in length from the CDS, following the guidelines outlined in the Quantitect SYBR Green PCR handbook from Qiagen.
Two template standards are used for quantitative PCR assessment of mRNA levels: • 1. A control RPS13 i.e. Ribosomal Protein Sub unit 13 (NM_001017) amplified PCR product diluted to [1000,100,10,1 and 0.1 fg] respectively, used to quantify the level of transcript; • 2. RPS13 amplified from sample templates as separate PCR reactions for normalisation purposes.
The cDNA templates from appropriate cell lines transfected with either gene specific, positive control e.g. Survivin or missense control siRNA are amplified with gene-specific QPCR primers using QuantiTectSYBR Green PCR kit (Qiagen 204143) on a DNA Engine Opticon System (MJ Research) (as described in detail in Example 3). The amplification conditions include a 95° C. step for 15 min for initial activation of HotStarTaq DNA polymerase, followed by 35 cycles of (15 s at 94° C., 30 s at 60° C., 30 s at 72°). The fluorescence of the samples at 521 nm is read between the annealing and extension steps of the protocol. The melting curves are calculated at the end of the 35 cycles and confirm product homogeneity.
A standard curve is plotted using the log [template quantity] of the RPS 13 control template dilutions (as above) versus cycle number at which the fluorescence intensity measured in the well exceeds the level specified in the cycle threshold parameters (the C(T) value). An estimate of the quantity of initial template in treatment samples is determined from this plot and the amount of target mRNA present in each sample is normalized across samples by calculating the ratio of target to RPS13 for each sample.
The normalised expression values are used to estimate percentage knockdown of target with reference to the control, transfected, cells (in this case cells transfected with missense siRNA).

## siRNA EKI: siRNA duplex, sense GCACUGGAUCCAAAGCAUGtt, antisense CAUGCUUUGGAUCCAGUGCtt; same in Tables 9 and 11 (sense GCACUGGAUCCAAAGCAUGTT; antisense CAUGCUUUGGAUCCAGUGCTT; chemistry not given here)
[1]
  Decrease in expression of target gene: 76.0%
[2]
  % Knockdown by RNAi, TF1 + GMCSF: 46%
  % Knockdown by RNAi, TF1 − GMCSF: 58%

## siRNA GRAF: siRNA duplex, sense GCGGAAGUUUGCAGAUUCCtt, antisense GGAAUCUGCAAACUUCCGCtt; same in Tables 9 and 11 (sense GCGGAAGUUUGCAGAUUCCTT; antisense GGAAUCUGCAAACUUCCGCTT; chemistry not given here)
[1]
  Decrease in expression of target gene: 64.5%
[2]
  % Knockdown by RNAi, TF1 + GMCSF: 56%
  % Knockdown by RNAi, TF1 − GMCSF: 73%

## siRNA MAPKK5: sense GAGGACAGGUUAAGCUGUGtt, antisense CACAGCUUAACCUGUCCUCtt (sense GAGGACAGGUUAAGCUGUGTT; antisense CACAGCUUAACCUGUCCUCTT; chemistry not given here)
[2]
  % Knockdown by RNAi, TF1 − GMCSF: 70%

## siRNA MKNK: sense UACAUGGCCCCUGAGGUAGtt, antisense CUACCUCAGGGGCCAUGUAtt (sense UACAUGGCCCCUGAGGUAGTT; antisense CUACCUCAGGGGCCAUGUATT; chemistry not given here)
[2]
  % Knockdown by RNAi, TF1 + GMCSF: 65%

## siRNA NTKL: siRNA duplex, sense UGUGGAGCUGAUGAAGCACtt, antisense GUGCUUCAUCAGCUCCACAtt; same in Tables 9 and 11 (sense UGUGGAGCUGAUGAAGCACTT; antisense GUGCUUCAUCAGCUCCACATT; chemistry not given here)
[1]
  Decrease in expression of target gene: 82.9%

## siRNA P14KB: sense GCUACGGAAGCUGAUCCUCtt, antisense GAGGAUCAGCUUCCGUAGCtt (sense GCUACGGAAGCUGAUCCUCTT; antisense GAGGAUCAGCUUCCGUAGCTT; chemistry not given here)
[2]
  % Knockdown by RNAi, TF1 − GMCSF: 40%

## siRNA PCTAIRE: sense GUCAGUGCCCACAAAGACUtt, antisense AGUCUUUGUGGGCACUGACtt (sense GUCAGUGCCCACAAAGACUTT; antisense AGUCUUUGUGGGCACUGACTT; chemistry not given here)
[2]
  % Knockdown by RNAi, TF1 + GMCSF: 20%
  % Knockdown by RNAi, TF1 − GMCSF: 70%

## siRNA PSKH1: sense GAACCUGCACCGCUCCAUAtt, antisense UAUGGAGCGGUGCAGGUUCtt (sense GAACCUGCACCGCUCCAUATT; antisense UAUGGAGCGGUGCAGGUUCTT; chemistry not given here)
[2]
  % Knockdown by RNAi, TF1 − GMCSF: 60%

## siRNA ROCK: siRNA duplex, sense UACAUGCCUGGUGGAGAUCtt, antisense GAUCUCCACCAGGCAUGUAtt; same in Tables 9 and 11 (sense UACAUGCCUGGUGGAGAUCTT; antisense GAUCUCCACCAGGCAUGUATT; chemistry not given here)
[1]
  Decrease in expression of target gene: 65.0%

## siRNA Survivin: positive control siRNA, sense GAACUGGCCCUUCUUGGAGtt, antisense CUCCAAGAAGGGCCAGUUCtt (sense GAACUGGCCCUUCUUGGAGTT; antisense CUCCAAGAAGGGCCAGUUCTT; chemistry not given here) [reference compound]
[1]
  Decrease in expression of target gene: 82.2%
[2]
  % Knockdown by RNAi, TF1 + GMCSF: 20%
